Assay [1] has as its target Vascular endothelial growth factor receptor 1 (Homo sapiens) (UniProt P17948). Nature of the assay: Inhibition of human Flt1 at 10 uM after 60 mins by TR-FRET assay. Conditions: values are per cent of control.
In assay [2] the target is Tyrosine-protein kinase Fyn (Homo sapiens) (UniProt P06241). Nature of the assay: Inhibition of human Fyn at 10 uM after 60 mins by TR-FRET assay. Particulars: values are per cent of control. (In general: In TR-FRET formats the signal depends on donor and acceptor labels being close together.)
The target in assay [3] is Mitogen-activated protein kinase 1 (Homo sapiens, UniProt P28482). Nature of the assay: Inhibition of human MAPK2 at 10 uM after 60 mins by TR-FRET assay. Conditions: values are per cent of control.
In assay [4] the target is Hepatocyte growth factor receptor (Homo sapiens) (UniProt P08581). Nature of the assay: Inhibition of human Met at 10 uM after 60 mins by TR-FRET assay. Particulars: values are per cent of control.
Assay [5] addresses Ribosomal protein S6 kinase alpha-1 (Homo sapiens) (UniProt Q15418). Nature of the assay: Inhibition of human Rsk1 at 10 uM after 60 mins by TR-FRET assay. Conditions: values are per cent of control.
Assay [6] has as its target Mitogen-activated protein kinase 11 (Homo sapiens) (UniProt Q15759). Nature of the assay: Inhibition of human SAPK2b at 10 uM after 60 mins by TR-FRET assay. Conditions: values are per cent of control.
In assay [7] the target is Tyrosine-protein kinase SYK (Homo sapiens) (UniProt P43405). Nature of the assay: Inhibition of human Syk at 10 uM after 60 mins by TR-FRET assay. Particulars: values are per cent of control.
The target in assay [8] is High affinity nerve growth factor receptor (Homo sapiens) (UniProt P04629). Nature of the assay: Inhibition of human TrkA at 10 uM after 60 mins by TR-FRET assay. Conditions: values are per cent of control.
The target of assay [9] is Mitogen-activated protein kinase 9 (Homo sapiens, UniProt P45984). Particulars: 10 uM.
Description: Inhibition of human JNK2alpha2 at 10 uM after 60 mins by TR-FRET assay
For assay [10], the target named is Mitogen-activated protein kinase kinase kinase kinase 2 (Homo sapiens) (UniProt Q12851). Nature of the assay: Inhibition of human GCK at 10 uM after 60 mins by TR-FRET assay; values are per cent of control.
In assay [11] the target is Vascular endothelial growth factor receptor 2 (Homo sapiens) (UniProt P35968). Nature of the assay: Inhibition of human KDR at 10 uM after 60 mins by TR-FRET assay; values are per cent of control.
Assay [12] has as its target Serine/threonine-protein kinase Nek2 (Homo sapiens) (UniProt P51955). Nature of the assay: Inhibition of human NEK2 at 10 uM after 60 mins by TR-FRET assay; values are per cent of control.
Assay [13] concerns the target Mitogen-activated protein kinase kinase kinase 7 (Homo sapiens) (UniProt O43318). Nature of the assay: Inhibition of human TAK1 at 10 uM after 60 mins by TR-FRET assay; values are per cent of control.
Assay [14] addresses Serine/threonine-protein kinase VRK2 (Homo sapiens) (UniProt Q86Y07). Nature of the assay: Inhibition of human VRK2 at 10 uM after 60 mins by TR-FRET assay; values are per cent of control.
Assay [15] has as its target T1, Serine/threonine-protein kinase Chk1 (Homo sapiens) (UniProt O14757).
T1 sequence (whole entry): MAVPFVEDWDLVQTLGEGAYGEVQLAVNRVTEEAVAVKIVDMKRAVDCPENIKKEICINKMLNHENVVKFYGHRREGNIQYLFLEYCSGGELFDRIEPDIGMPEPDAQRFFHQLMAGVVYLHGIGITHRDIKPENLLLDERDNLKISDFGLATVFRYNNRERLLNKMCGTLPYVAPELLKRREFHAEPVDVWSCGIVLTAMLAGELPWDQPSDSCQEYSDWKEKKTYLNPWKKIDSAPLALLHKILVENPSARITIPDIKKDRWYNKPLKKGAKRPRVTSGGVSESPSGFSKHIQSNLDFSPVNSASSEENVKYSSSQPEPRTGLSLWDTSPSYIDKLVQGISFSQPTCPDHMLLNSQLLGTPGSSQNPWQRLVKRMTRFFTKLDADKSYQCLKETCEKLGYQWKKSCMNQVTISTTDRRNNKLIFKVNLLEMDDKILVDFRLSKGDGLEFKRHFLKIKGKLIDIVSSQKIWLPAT
Nature of the assay: Inhibition of human CHK1 at 10 uM after 60 mins by TR-FRET assay; values are per cent of control.

Assay [16] concerns the target PAS domain-containing serine/threonine-protein kinase (Homo sapiens) (UniProt Q96RG2). Nature of the assay: Inhibition of human PASK at 10 uM after 60 mins by TR-FRET assay; values are per cent of control.
For assay [17], the target named is Protein-tyrosine kinase 2-beta (Homo sapiens) (UniProt Q14289). Nature of the assay: Inhibition of human Pyk2 at 10 uM after 60 mins by TR-FRET assay; values are per cent of control.
For assay [18], the target named is SRSF protein kinase 3 (Homo sapiens) (UniProt Q9UPE1). Nature of the assay: Inhibition of human MSSK1 at 10 uM after 60 mins by TR-FRET assay; values are per cent of control.
For assay [19], the target named is Protein kinase C zeta type (Homo sapiens) (UniProt Q05513). Nature of the assay: Inhibition of human PKCzeta at 10 uM after 60 mins by TR-FRET assay; values are per cent of control.
The target of assay [20] is T2, Aurora kinase A (Homo sapiens) (UniProt O14965).
T2 sequence (whole entry): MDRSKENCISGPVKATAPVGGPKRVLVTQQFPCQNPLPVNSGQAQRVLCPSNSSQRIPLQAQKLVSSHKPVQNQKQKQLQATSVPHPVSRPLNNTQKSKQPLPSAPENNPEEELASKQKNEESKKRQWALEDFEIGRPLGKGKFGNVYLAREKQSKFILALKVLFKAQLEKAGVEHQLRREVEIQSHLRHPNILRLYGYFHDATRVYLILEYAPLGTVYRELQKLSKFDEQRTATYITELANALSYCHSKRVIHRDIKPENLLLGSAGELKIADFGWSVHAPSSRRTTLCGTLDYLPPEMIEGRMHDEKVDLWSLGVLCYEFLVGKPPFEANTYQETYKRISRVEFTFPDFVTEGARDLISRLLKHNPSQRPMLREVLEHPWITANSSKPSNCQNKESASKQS
Nature of the assay: Inhibition of human Aurora-A at 10 uM after 60 mins by TR-FRET assay; values are per cent of control.

For assay [21], the target named is RAC-alpha serine/threonine-protein kinase (Homo sapiens) (UniProt P31749). Nature of the assay: Inhibition of human PKBalpha at 10 uM after 60 mins by TR-FRET assay; values are per cent of control.
The test system of assay [22] is Serine/threonine-protein kinase Chk2 (Homo sapiens), O96017 [R145W]. Nature of the assay: Inhibition of human CHK2 R145W mutant at 10 uM after 60 mins by TR-FRET assay; values are per cent of control.

The values below come from ChEMBL document CHEMBL1641539 (Bioorg Med Chem Lett, 2011).

Sequence of Protein kinase C zeta type (Homo sapiens) (Q05513 whole entry): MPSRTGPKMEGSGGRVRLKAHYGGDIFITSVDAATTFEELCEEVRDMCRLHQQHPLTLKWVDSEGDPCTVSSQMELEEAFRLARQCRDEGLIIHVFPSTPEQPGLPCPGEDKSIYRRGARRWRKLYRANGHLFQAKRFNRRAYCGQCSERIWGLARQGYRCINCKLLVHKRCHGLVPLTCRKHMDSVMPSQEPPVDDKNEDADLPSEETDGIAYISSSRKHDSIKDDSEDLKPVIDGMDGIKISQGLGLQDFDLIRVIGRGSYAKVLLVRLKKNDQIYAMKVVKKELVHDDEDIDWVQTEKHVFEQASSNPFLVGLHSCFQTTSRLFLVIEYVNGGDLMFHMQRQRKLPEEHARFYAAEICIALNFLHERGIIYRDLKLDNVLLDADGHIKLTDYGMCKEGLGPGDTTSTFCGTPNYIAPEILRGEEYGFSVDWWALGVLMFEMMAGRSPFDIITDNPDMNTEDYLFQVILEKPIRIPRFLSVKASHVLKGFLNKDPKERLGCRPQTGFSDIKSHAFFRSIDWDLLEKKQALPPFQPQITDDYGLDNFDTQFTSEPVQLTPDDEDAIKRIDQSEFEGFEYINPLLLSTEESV
Sequence of Mitogen-activated protein kinase kinase kinase 7 (Homo sapiens) (O43318 whole entry): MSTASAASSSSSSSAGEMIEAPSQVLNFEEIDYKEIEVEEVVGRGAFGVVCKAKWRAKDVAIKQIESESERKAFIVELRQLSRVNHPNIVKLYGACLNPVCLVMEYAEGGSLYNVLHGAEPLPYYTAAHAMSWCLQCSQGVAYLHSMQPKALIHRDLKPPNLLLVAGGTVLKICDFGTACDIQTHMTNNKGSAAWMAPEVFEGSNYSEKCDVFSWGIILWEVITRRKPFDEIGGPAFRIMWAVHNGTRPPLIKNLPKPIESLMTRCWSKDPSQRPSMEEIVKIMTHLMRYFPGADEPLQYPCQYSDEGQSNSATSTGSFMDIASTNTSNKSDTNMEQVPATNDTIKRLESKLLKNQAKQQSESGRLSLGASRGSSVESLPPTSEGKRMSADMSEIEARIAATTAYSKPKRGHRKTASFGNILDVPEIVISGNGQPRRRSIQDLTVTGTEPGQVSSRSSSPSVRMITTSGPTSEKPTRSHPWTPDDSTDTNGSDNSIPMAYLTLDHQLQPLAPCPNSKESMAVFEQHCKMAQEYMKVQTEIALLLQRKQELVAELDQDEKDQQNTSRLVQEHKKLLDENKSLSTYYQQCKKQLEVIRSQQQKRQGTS
Sequence of Hepatocyte growth factor receptor (Homo sapiens) (P08581 whole entry): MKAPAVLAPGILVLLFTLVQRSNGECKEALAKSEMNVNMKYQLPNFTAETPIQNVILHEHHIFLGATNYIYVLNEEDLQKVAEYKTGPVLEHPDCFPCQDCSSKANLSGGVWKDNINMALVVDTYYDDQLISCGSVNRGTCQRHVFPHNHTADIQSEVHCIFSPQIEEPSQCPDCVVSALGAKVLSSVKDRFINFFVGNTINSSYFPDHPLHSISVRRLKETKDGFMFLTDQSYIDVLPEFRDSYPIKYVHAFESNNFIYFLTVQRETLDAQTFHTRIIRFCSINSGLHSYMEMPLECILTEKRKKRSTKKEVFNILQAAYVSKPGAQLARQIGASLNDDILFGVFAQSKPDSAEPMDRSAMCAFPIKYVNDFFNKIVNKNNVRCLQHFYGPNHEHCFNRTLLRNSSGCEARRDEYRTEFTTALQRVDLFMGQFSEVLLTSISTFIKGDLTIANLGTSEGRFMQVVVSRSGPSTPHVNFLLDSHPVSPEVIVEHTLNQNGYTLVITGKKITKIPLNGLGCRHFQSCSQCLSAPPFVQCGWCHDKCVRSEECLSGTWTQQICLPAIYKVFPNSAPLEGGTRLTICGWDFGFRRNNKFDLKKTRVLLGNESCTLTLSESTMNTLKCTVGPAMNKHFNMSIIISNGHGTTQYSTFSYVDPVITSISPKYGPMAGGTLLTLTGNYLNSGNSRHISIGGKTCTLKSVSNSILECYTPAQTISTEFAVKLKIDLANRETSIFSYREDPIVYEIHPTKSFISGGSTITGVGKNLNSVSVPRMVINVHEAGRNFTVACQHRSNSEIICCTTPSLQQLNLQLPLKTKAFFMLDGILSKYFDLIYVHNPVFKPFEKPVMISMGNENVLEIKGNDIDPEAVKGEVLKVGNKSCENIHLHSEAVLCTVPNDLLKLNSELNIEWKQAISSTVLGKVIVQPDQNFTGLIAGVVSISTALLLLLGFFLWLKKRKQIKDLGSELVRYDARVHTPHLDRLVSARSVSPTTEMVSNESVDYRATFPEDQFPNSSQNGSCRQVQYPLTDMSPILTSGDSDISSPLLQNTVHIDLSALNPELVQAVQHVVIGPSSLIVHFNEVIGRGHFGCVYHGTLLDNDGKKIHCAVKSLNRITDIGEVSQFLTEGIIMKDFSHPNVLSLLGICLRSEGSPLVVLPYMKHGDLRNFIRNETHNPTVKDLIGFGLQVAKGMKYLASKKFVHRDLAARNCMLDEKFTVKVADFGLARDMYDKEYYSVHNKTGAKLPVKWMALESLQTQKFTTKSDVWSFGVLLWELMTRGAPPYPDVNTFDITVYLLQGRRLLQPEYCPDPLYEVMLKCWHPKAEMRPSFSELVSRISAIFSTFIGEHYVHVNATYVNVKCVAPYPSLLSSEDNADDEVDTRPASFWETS
Sequence of Serine/threonine-protein kinase Chk2 (Homo sapiens), O96017 [R145W] (O96017 whole entry R145W): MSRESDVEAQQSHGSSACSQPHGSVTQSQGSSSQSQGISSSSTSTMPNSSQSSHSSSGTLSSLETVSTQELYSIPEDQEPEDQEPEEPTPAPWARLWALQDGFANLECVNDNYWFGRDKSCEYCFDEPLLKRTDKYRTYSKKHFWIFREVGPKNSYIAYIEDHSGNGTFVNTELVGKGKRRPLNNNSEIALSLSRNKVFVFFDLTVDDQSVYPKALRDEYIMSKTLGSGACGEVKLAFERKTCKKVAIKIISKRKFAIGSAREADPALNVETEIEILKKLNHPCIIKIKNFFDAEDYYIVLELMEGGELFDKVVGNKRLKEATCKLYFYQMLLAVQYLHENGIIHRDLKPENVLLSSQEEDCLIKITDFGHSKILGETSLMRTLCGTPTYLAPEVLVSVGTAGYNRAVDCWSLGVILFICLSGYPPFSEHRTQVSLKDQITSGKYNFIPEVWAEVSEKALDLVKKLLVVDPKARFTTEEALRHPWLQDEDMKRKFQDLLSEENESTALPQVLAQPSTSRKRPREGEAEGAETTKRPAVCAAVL
Sequence of Serine/threonine-protein kinase VRK2 (Homo sapiens) (Q86Y07 whole entry): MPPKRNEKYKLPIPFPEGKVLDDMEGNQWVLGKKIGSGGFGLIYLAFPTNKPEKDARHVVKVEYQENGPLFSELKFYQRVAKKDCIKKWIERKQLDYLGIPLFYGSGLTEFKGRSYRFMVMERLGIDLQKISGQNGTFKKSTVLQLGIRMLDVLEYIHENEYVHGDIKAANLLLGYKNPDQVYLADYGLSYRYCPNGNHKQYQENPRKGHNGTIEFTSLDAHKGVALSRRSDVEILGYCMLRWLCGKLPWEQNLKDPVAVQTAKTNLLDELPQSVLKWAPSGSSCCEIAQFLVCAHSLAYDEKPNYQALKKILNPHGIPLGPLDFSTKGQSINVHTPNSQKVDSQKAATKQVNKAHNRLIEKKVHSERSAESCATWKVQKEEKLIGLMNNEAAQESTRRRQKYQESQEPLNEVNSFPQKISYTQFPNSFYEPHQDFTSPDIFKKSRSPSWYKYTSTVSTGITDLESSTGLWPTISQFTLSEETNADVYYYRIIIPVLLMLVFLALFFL
Sequence of Ribosomal protein S6 kinase alpha-1 (Homo sapiens) (Q15418 whole entry): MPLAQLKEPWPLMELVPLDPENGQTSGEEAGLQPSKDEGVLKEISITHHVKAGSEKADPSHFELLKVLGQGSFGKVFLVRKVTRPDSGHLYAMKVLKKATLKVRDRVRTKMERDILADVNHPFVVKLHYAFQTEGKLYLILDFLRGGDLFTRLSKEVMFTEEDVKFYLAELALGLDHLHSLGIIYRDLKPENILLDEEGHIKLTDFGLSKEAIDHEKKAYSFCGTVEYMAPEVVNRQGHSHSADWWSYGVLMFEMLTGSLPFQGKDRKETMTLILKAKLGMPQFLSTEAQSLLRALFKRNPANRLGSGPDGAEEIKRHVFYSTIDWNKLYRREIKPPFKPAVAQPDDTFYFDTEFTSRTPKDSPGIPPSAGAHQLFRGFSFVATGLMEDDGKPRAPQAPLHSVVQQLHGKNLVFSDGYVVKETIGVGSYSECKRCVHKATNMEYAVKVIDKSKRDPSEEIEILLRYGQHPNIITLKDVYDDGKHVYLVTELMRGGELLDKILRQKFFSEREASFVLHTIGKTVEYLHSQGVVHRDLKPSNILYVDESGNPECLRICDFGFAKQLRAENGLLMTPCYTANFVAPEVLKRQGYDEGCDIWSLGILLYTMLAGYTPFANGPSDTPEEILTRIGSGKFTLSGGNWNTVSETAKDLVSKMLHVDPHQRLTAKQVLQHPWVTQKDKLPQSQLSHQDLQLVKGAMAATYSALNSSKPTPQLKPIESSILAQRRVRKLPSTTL
Sequence of RAC-alpha serine/threonine-protein kinase (Homo sapiens) (P31749 whole entry): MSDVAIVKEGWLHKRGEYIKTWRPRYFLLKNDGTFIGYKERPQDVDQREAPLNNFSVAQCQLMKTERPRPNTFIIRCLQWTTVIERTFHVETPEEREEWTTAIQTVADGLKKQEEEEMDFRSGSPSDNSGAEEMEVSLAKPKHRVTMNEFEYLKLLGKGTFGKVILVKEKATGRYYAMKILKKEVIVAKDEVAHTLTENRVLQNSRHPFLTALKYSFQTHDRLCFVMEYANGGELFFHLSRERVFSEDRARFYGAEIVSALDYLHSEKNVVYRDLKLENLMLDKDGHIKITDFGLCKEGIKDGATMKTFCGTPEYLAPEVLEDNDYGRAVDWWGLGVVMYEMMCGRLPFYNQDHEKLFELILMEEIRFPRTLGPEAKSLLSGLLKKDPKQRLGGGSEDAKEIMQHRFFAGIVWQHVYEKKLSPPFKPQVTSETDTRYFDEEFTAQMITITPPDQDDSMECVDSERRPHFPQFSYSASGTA

As for `S=c1[nH]nc(-c2ccncc2)n1-c1ccc2ccccc2c1`, the residual activity in [1] was 107%; in assay [2], 116%; in assay [3] it was 114%; in assay [4] it was 108%; in assay [5], 105%; in assay [6], 90%. Besides, the residual activity in assay [7] was 116%; in assay [8] it was 116%; in assay [10], 103%; in [11] it was 105%; in assay [12], 110%; in assay [13] it was 89%. In addition, the residual activity in assay [14] is 122%; in assay [15], 113%; in assay [16] it was 99%; in assay [17], 98%; in [18], 121%; in assay [19] it was 115%. Also, the values for the residual activity in [20], in [21] and in [22] were 99%, 99% and 108%, respectively. Also, the inhibition (as a rule, the relative decrease from the control value, in per cent) in assay [9] was 88%.
